Assay [1] is described as follows: ESI-MS detection of peptide-Lipid-A complex formation. Format: binding. To be noted: CHL/MeOH/H2O solutions; D-Lipid-A 0.005 mg/mL. The method, then:
In this example, electrospray ionization mass spectrometry experiments were carried out on Lipid-A (D-Lipid-A) and peptides WK-11, KK-12, KK-11 under a variety of solution and mass spectrometry conditions. Binding of D-Lipid-A to WK-11, KK-12, KK-11 peptides was observed by mass spectrometry methods, as quite abundant ion (LipidA-peptide) complexes were detected from CHL/MeOH/H2O solutions.
Materials: Three peptides KFFKKFFKFFKK (SEQ ID NO: 1; KK-12), WKKWWKKWWKK (SEQ ID NO: 2; WK-11), and KKKKFFFKFFK (SEQ ID NO: 3; KK-11) were ordered from a custom commercial synthesis. Diphosphoryl Lip-A (D-Lipid-A) (C94O25N2P2H178) was obtained from Sigma.
Chemicals: chloroform (CHL), methanol (MeOH), Water (H2O), triethylamine (TEA), ammonium acetate.
Instrumentation: Micro-TOF ESI-MS (Bruker Daltonics); Q-Star-XL nano-ESI-MS (AB-SCIEX).
Solubility studies were performed in order to optimize the solubility of both the peptides and diphosphoryl Lipid A. Solution conditions for electrospray ionization mass spectrometry experiments on diphosphoryl Lipid A and peptides were evaluated using (CHL)X(MeOH)Y(H2O)Z, where X=0-70%; Y=0-70%; and Z=0-95%.
In one experiment, Diphosphoryl Lipid A (0.005 mg/mL) and WK-11 (0.005 mg/mL) were dissolved in 70% CHL/30% MeOH/0.5% water and evaluated by ESI-MS. Electrospray ionization mass spectrometry (ESI-MS) of peptide WK-11 and Lipid-A and detection of complex formation is shown in FIG. 6. Single circles show fragments assigned to the peptide. Double circles show lipid A bound to peptide WK-11.
In another experiment, Diphosphoryl Lipid A (0.005 mg/mL) and KK-12 (0.005 mg/mL) were dissolved in 70% CHL/30% MeOH/0.5% water and evaluated by ESI-MS. Single circles show fragments assigned to the peptide. Double circles show lipid A bound to peptide KK-12.
In another experiment, Diphosphoryl Lipid A (0.005 mg/mL) and KK-11 (0.015 mg/mL) were dissolved in 30% CHL/68% MeOH/2% water and evaluated by ESI-MS. Single circles show fragments assigned to the peptide. Double circles show lipid A bound to peptide KK-11.

The next assay deals with THP-1 cell line. As to the kind of experiment: Peptides block effect of LPS in THP-1 cell line. In kind it is cell-based, human. To be noted: THP-1 stimulated with LPS 1 mg/mL, treated after 24 hours with peptide 0.5 mg/mL. On the procedure:
THP-1 is a human monocytic cell line derived from an acute monocytic leukemia patient. It is typically used to test immunocytochemical analysis of protein-protein interaction and immunohistochemistry. THP-1 cell line can provide continuous culture, grown in suspension, for example, RPMI 1640+10% FBS+2 mM L-glutamine. The average doubling time is 35 to 50 hrs. To inhibit bacterial growth, 1 mM sodium pyruvate, penicillin (100 units/mL) or streptomycin (100 ug/mL) can be employed. Cultures are typically maintained at between 2-9×10^5 cells/mL at 37 degrees C., and 5% CO2. The cells are generally non-adhesive.
THP-1 cell line in culture was stimulated with 1 mg/mL LPS.
In contrast, THP-1 stimulated with LPS (1 mg/mL) and then treated after 24 hours with Peptide 1 (KK-12)(SEQ ID NO: 1) (0.5 mg/mL).

Assay [2] is described as follows: ESI-MS competition ranking of Lipid A-binding propensities of peptides. Particulars: for relative binding affinity Ka with D-Lipid-A, competition KK-12 vs KK-11 / relative binding affinity Ka with D-Lipid-A, competition WK-11 vs KK-12 / relative binding affinity Ka with D-Lipid-A, competition WK-11 vs KK-11: 0.0032 mg/mL each peptide; for relative binding affinity Ka with D-Lipid-A, competition KK-12 vs KK-11: D-lipid-A 0.005 mg/mL; for relative binding affinity Ka with D-Lipid-A, competition WK-11 vs KK-12: D-lipid-A 0.001-0.0050 mg/mL, FIG. 20A; for relative binding affinity Ka with D-Lipid-A, competition WK-11 vs KK-12 / relative binding affinity Ka with D-Lipid-A, competition WK-11 vs KK-11: R-ratios; for rank order of relative binding affinities (Ka) to D-lipid-A, combined data of Example 4: combined competition data; for relative binding affinity Ka with D-Lipid-A, competition WK-11 vs KK-11: increasing D-lipid-A, FIG. 20B. From the text: ESI-MS based methods were used to rank binding affinities of peptides WK-11, KK-12, and KK-11 to diphosphoryl lipid A in CHL/MeOH/H2O, 45%/55%/0.05%, unless otherwise specified.
Materials and Chemicals were the same as shown in Example 3.
Instrumentation included Micro-TOF ESI-MS (Bruker Daltonics); FT-ICR-MS NanoDrop-2000 UV-Vis Spectrophotometer.
A series of ESI-MS competition experiments were designed to determine relative binding intensities of peptide-lipid A complexes in ESI-MS while varying the concentration of the D-lipid-A.
Then, an equal concentration of both peptides was employed, while increasing the concentration of the D-lipid-A in three experiments, as shown in FIGS. 12-14. Double circles surround lipid-A bound to peptide WK-11 (“1”) or lipid-A bound to KK-12 (“2”).
Resultant signal intensities of peptides and their complexes with D-lipid-A were used to plot R-ratios, determined as in Eq. 1, against D-Lipid-A concentrations.
R═Itotal(peptide:Lipid)/Itotal(peptide) [Eq. 1]
Comparison of the corresponding R-functions allows us to rank the peptides Ka binding constants, assuming that the value of the ratio between signal-response factors of complexes is approximately the same or deviates only weakly from the one for corresponding free peptides.
Then, an equal concentration of both peptides was employed, while increasing the concentration of the D-lipid-A in three experiments, two of which are shown in FIGS. 17-18. Double circles surround lipid-A bound to peptide WK-11 (“1”) or lipid-A bound to KK-11 (“2”).
Resultant signal intensities of peptides and their complexes with D-lipid-A were used to plot R-ratios, determined as in Eq. 1, against D-Lipid-A concentrations, as in Example 4B.

Experimental findings from patent US20160083429A1, “COMPOSITIONS AND METHODS FOR ENDOTOXIN NEUTRALIZATION” (Immunotrex Biologics, Inc., priority 2014, published 2016) are described below.

As to “Angiotensin (DRVYIHPFHL; Angiotensin-1; UniProt P01019 25-34, looked up) [control standard peptide with size similar to KDEON peptides, reference compound]”, in assay [1], the “binding to Lipid A (complex formation detected by ESI-MS)” value is given as “no sign of binding propensity to D-Lipid-A”.
As for KFFKKFFKFFKK [KK-12], the “effect on LPS-stimulated THP-1 cells (cell adherence, outer membrane shape and color)” value in the assay with THP-1 cell line was “appears to reverse the effects of LPS”. The “binding to Lipid A (complex formation detected by ESI-MS)” value in assay [1] is “specifically binds to Lipid A”. For the same substance, in assay [2], the “relative binding affinity Ka with D-Lipid-A, competition KK-12 vs KK-11” value is “Ka(KK-11)>Ka (KK-12)”; the “relative binding affinity Ka with D-Lipid-A, competition WK-11 vs KK-12” value is given as “Ka(WK-11)>Ka(KK-12)”; the “rank order of relative binding affinities (Ka) to D-lipid-A, combined data of Example 4” value is “Ka(WK-11)≧Ka(KK-11)>Ka(KK-12)”.
Take KKKKFFFKFFK [KK-11]: the “binding to Lipid A (complex formation detected by ESI-MS)” value in assay [1] is reported as “specifically binds to Lipid A”. Also, in assay [2], the “relative binding affinity Ka with D-Lipid-A, competition KK-12 vs KK-11” value is “Ka(KK-11)>Ka (KK-12)”; the “relative binding affinity Ka with D-Lipid-A, competition WK-11 vs KK-11” value is given as “Ka(WK-11)≧Ka(KK-11)”; the “rank order of relative binding affinities (Ka) to D-lipid-A, combined data of Example 4” value is reported as “Ka(WK-11)≧Ka(KK-11)>Ka(KK-12)”.
On to WKKWWKKWWKK [WK-11], for which the “binding to Lipid A (complex formation detected by ESI-MS)” value in assay [1] is given as “specifically binds to Lipid A”. In assay [2], the “relative binding affinity Ka with D-Lipid-A, competition WK-11 vs KK-12” value was “Ka(WK-11)>Ka(KK-12)”; the “relative binding affinity Ka with D-Lipid-A, competition WK-11 vs KK-11” value is reported as “Ka(WK-11)≧Ka(KK-11)”; the “rank order of relative binding affinities (Ka) to D-lipid-A, combined data of Example 4” value is reported as “Ka(WK-11)≧Ka(KK-11)>Ka(KK-12)”.
